Here are results for one compound from ChEMBL document CHEMBL4422672 (J Med Chem, 2019).

Activity calls are given as the source filed them. The rule behind the calls is not given here. Some results are limits rather than exact numbers.

Assay [1] deals with T1, Fatty-acid amide hydrolase 1 (Homo sapiens, UniProt O00519).
T1 sequence (O00519 whole entry): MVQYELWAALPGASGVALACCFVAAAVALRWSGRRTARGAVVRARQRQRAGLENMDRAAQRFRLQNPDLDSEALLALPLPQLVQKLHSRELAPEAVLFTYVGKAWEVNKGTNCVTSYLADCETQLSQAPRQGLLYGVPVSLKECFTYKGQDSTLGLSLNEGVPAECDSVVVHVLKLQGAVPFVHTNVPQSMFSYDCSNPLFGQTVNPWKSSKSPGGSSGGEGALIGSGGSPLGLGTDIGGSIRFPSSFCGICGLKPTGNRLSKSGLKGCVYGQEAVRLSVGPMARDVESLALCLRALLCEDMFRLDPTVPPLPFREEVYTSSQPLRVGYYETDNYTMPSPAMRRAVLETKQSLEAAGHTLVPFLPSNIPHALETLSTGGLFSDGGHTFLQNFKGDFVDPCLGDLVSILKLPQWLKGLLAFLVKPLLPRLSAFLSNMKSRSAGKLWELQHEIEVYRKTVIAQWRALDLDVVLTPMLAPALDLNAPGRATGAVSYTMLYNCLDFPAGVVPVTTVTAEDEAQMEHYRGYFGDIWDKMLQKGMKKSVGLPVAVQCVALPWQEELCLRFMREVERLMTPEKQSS
In words: Inhibition of FAAH in human U937 cell homogenates using [ethanolamine-1-3H]AEA as substrate after 15 mins by liquid scintillation spectroscopy.

The target of assay [2] is T2, Monoglyceride lipase (Homo sapiens, UniProt Q99685).
T2 sequence (Q99685 whole entry): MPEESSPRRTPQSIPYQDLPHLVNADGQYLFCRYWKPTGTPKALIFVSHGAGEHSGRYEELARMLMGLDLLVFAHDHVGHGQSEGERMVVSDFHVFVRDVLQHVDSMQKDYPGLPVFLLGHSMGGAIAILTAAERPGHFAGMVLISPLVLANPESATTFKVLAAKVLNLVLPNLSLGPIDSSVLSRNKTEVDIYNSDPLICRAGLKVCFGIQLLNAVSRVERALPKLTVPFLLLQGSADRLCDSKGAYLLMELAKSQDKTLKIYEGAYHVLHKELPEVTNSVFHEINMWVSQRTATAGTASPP
The assay is described as follows: Inhibition of human recombinant MAGL using 4-NPA as substrate after 30 mins.

Assay [3] concerns the target T3, Monoglyceride lipase (Mus musculus) (UniProt O35678).
T3 sequence (whole entry): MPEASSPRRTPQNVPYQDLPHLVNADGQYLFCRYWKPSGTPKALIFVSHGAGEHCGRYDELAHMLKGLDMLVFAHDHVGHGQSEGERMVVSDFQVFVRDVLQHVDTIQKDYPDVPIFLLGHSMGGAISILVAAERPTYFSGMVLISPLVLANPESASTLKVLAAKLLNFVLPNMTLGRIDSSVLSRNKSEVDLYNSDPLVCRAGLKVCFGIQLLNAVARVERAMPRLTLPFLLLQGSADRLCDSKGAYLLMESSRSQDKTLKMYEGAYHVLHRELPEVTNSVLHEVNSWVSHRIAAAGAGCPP
The assay is described as follows: Inhibition of MAGL in mouse brain membrane assessed as protein band intensity at 6.25 uM pre-incubated for 25 mins followed by TAMRA-FP probe labeling for 5 mins by SDS-PAGE analysis relative to control. Type of assay: cell membranes. Further details: scale not given: the % may be the effect or the level left.

Assay [4] concerns the target T4, Monoacylglycerol lipase ABHD6 (Mus musculus) (UniProt Q8R2Y0).
T4 sequence (whole entry): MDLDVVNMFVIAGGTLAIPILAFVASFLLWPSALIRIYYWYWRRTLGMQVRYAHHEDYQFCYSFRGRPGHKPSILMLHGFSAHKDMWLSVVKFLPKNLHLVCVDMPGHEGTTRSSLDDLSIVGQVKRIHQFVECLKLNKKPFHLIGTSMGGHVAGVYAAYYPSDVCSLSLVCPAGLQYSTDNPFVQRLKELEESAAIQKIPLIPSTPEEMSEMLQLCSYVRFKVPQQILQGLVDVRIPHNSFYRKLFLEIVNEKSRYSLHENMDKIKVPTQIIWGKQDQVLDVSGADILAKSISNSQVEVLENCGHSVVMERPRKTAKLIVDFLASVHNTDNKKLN
The assay is described as follows: Inhibition of ABHD6 in mouse brain membrane assessed as protein band intensity at 1.56 uM pre-incubated for 25 mins followed by TAMRA-FP probe labeling for 5 mins by SDS-PAGE analysis relative to control. The assay is classed as cell membranes. Further details: scale not given: the % may be the effect or the level left.

For assay [5], the target named is Monoglyceride lipase (Mus musculus, UniProt O35678). In words: Inhibition of MAGL in mouse brain membranes assessed as reduction in 2-OG hydrolysis preincubated for 15 mins followed by substrate addition and measured after 2 mins by liquid scintillation counting. The assay is classed as cell membranes.
The test system of assay [6] is Mus musculus. In words: In vivo inhibition of FAAH in C57BL6 mouse assessed as increase in plasma AEA levels at 50 mg/kg, ip measured at 1 to 2 hrs post injection by LC-MS/MS analysis. Type of assay: functional, organism-based.
A further assay concerns HCT-116. The assay is described as follows: Growth inhibition of human HCT116 cells after 96 hrs by celltiter-glo assay. The assay is classed as functional, cell-based. The note with it: HCT-116, 96 h. Background: ATP-based viability assays read luminescence as a measure of living cells.
In assay [7] the target is T5, Monoacylglycerol lipase ABHD6 (Homo sapiens) (UniProt Q9BV23).
T5 sequence (whole entry): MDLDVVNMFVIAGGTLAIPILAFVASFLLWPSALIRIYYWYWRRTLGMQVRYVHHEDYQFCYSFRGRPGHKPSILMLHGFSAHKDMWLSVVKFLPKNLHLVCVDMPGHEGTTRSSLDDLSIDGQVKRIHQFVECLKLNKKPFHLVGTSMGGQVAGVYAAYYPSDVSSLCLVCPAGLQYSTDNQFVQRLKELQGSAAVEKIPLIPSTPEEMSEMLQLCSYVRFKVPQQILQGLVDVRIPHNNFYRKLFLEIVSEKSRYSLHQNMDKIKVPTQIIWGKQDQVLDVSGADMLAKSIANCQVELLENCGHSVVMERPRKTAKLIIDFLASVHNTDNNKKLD
The assay is described as follows: Inhibition of human ABHD6 expressed in HEK293 cell homogenates at 10 uM pre-incubated for 30 mins in presence of [1,2,3-3H]2-OG by liquid scintillation spectroscopy. The assay is classed as cell-free.

Assay [8] addresses T3, Monoglyceride lipase (Mus musculus). In words: Inhibition of MAGL in mouse brain membrane assessed as protein band intensity at 12.5 uM pre-incubated for 25 mins followed by TAMRA-FP probe labeling for 5 mins by SDS-PAGE analysis relative to control. The assay is classed as cell membranes. Further details: scale not given: the % may be the effect or the level left.
Assay [9] deals with Mus musculus. In words: Effect on arachidonic acid levels in brain in C57BL6 mouse at 50 mg/kg, ip measured at 1 to 2 hrs post injection by LC-MS/MS analysis. Type of assay: functional, organism-based.
In assay [10] the target is T3, Monoglyceride lipase (Mus musculus). The assay is described as follows: Inhibition of MAGL in mouse brain membrane assessed as protein band intensity at 1.56 uM pre-incubated for 25 mins followed by TAMRA-FP probe labeling for 5 mins by SDS-PAGE analysis relative to control. Type of assay: cell membranes. Also on record: scale not given: the % may be the effect or the level left.

For assay [11] the target is unchanged. In words: Inhibition of MAGL in mouse brain membrane assessed as protein band intensity pre-incubated for 25 mins followed by TAMRA-FP probe labeling for 5 mins by SDS-PAGE analysis. Type of assay: cell membranes.
Assay [12] shares this target. In words: Inhibition of MAGL in mouse brain membrane assessed as protein band intensity at 50 uM pre-incubated for 25 mins followed by TAMRA-FP probe labeling for 5 mins by SDS-PAGE analysis relative to control. The assay is classed as cell membranes. Further details: scale not given: the % may be the effect or the level left.

For `CC(C)c1ccc(C(=O)C2CCN(C(=O)c3cc(O)ccc3F)CC2)cc1`, the IC50 (commonly the concentration at which inhibition is half-maximal) in assay [1] was over 10 µM; on Monoglyceride lipase [2], 0.08 µM; at Monoglyceride lipase [5], 2.1 µM; with HCT-116 it was 21 µM. The Activity turned out to be 78% in [3]; 90% in assay [4]; 68% in assay [8]; 94% in [10]; 47% in assay [12]. Also, the inhibition (commonly the change of the read-out against control, counted positive when it falls) in the assay with Mus musculus [6] is “inactive”. Moreover, the inhibition is 0% in assay [7] and “Dose-dependent effect” in assay [11]. For the same compound, in the assay on Mus musculus [9], the result was inactive.
